Measured values: PubChem BioAssay AID2060912 (Molecular Pharmacology Branch, DTP, NCI, 2025)

System: HUVEC/MSC spheroids viability
Test: Human HUVEC/MSC cell line growth inhibition [KRAS2];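 for viability, T/C: percent of DMSO vehicle control luminescence so 100% = untreated viability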
Settings: for IC50: curve of first compound; for viability, T/C: stronger effect = lower value; active = viability on the fitted dose curve at most 10% of control; inactive = the rest
In short: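 Stroma-only multicellular spheroids, formed from HUVEC and human MSCs at passages </=5, received RAS-pathway inhibitors with or without a second targeted drug. Dosing followed half-log dilutions from clinically achievable levels.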

[1] = second compound 0.0316 µM, first compound 0.0316 µM
[2] = second compound 0.0316 µM, first compound 0.1 µM
[3] = second compound 0.0316 µM, first compound 0.316 µM
[4] = second compound 0.0316 µM, first compound 1 µM
[5] = second compound 0.0316 µM, first compound 3.16 µM
[6] = second compound 0.0316 µM, first compound 10 µM
[7] = second compound 0.1 µM, first compound 0.0316 µM
[8] = second compound 0.1 µM, first compound 0.1 µM
[9] = second compound 0.1 µM, first compound 0.316 µM
[10] = second compound 0.1 µM, first compound 1 µM
[11] = second compound 0.1 µM, first compound 3.16 µM
[12] = second compound 0.1 µM, first compound 10 µM
[13] = second compound 0.316 µM, first compound 0.0316 µM
[14] = second compound 0.316 µM, first compound 0.1 µM
[15] = second compound 0.316 µM, first compound 0.316 µM
[16] = second compound 0.316 µM, first compound 1 µM
[17] = second compound 0.316 µM, first compound 3.16 µM
[18] = second compound 0.316 µM, first compound 10 µM
[19] = second compound 1 µM, first compound 0.0316 µM
[20] = second compound 1 µM, first compound 0.1 µM
[21] = second compound 1 µM, first compound 0.316 µM
[22] = second compound 1 µM, first compound 1 µM
[23] = second compound 1 µM, first compound 3.16 µM
[24] = second compound 1 µM, first compound 10 µM
[25] = second compound 3.16 µM, first compound 0.0316 µM
[26] = second compound 3.16 µM, first compound 0.1 µM
[27] = second compound 3.16 µM, first compound 0.316 µM
[28] = second compound 3.16 µM, first compound 1 µM
[29] = second compound 3.16 µM, first compound 3.16 µM
[30] = second compound 3.16 µM, first compound 10 µM
[31] = second compound 10 µM, first compound 0.0316 µM
[32] = second compound 10 µM, first compound 0.1 µM
[33] = second compound 10 µM, first compound 0.316 µM
[34] = second compound 10 µM, first compound 1 µM
[35] = second compound 10 µM, first compound 3.16 µM
[36] = second compound 10 µM, first compound 10 µM

COc1cc(Nc2ncc3c(n2)-c2ccc(Cl)cc2C(c2c(F)cccc2OC)=NC3)ccc1C(=O)O + CC1OCC2(CCN(c3cnc(Sc4ccnc(N)c4Cl)c(N)n3)CC2)C1N
9.81 µM: IC50 (second compound 1 µM)
5.94 µM: IC50 (second compound 10 µM)
> 10 µM: IC50 (second compound 0.0316 µM) | IC50 (second compound 0.1 µM) | IC50 (second compound 0.316 µM)
inactive: viability, T/C [1] 101% | viability, T/C [2] 128% | viability, T/C [3] 105% | viability, T/C [4] 87.7% | viability, T/C [5] 85.2% | viability, T/C [6] 60.1% | viability, T/C [7] 118% | viability, T/C [8] 105% | viability, T/C [9] 97.5% | viability, T/C [10] 87.5% | viability, T/C [11] 103% | viability, T/C [12] 56.9% | viability, T/C [13] 110% | viability, T/C [14] 116% | viability, T/C [15] 106% | viability, T/C [16] 101% | viability, T/C [17] 94.7% | viability, T/C [18] 49.5% | viability, T/C [19] 106% | viability, T/C [20] 101% | viability, T/C [21] 92.9% | viability, T/C [22] 81.7% | viability, T/C [23] 77.2% | viability, T/C [24] 47.4% | viability, T/C [25] 79.5% | viability, T/C [26] 91% | viability, T/C [27] 72.4% | viability, T/C [28] 88.8% | viability, T/C [29] 79.2% | viability, T/C [30] 48.2% | viability, T/C [31] 66.4% | viability, T/C [32] 76% | viability, T/C [33] 76% | viability, T/C [34] 72.6% | viability, T/C [35] 70.8% | viability, T/C [36] 32.8%
9.34 µM: IC50 (second compound 3.16 µM)

COc1cc2nccc(Oc3ccc(NC(=O)C4(C(=O)Nc5ccc(F)cc5)CC4)cc3)c2cc1OC + CC1OCC2(CCN(c3cnc(Sc4ccnc(N)c4Cl)c(N)n3)CC2)C1N
4.56 µM: IC50 (second compound 0.1 µM)
5.72 µM: IC50 (second compound 0.0316 µM)
inactive: viability, T/C [1] 111% | viability, T/C [2] 87.5% | viability, T/C [3] 79.3% | viability, T/C [4] 103% | viability, T/C [5] 73.7% | viability, T/C [6] 27.6% | viability, T/C [7] 96.5% | viability, T/C [8] 93% | viability, T/C [9] 100% | viability, T/C [10] 80.8% | viability, T/C [11] 66.5% | viability, T/C [12] 17.4% | viability, T/C [13] 88.6% | viability, T/C [14] 89.9% | viability, T/C [15] 67.9% | viability, T/C [16] 83% | viability, T/C [17] 75% | viability, T/C [18] 19.6% | viability, T/C [19] 72.6% | viability, T/C [20] 75.6% | viability, T/C [21] 82.4% | viability, T/C [22] 80% | viability, T/C [23] 62.3% | viability, T/C [25] 72.5% | viability, T/C [26] 79% | viability, T/C [27] 77.5% | viability, T/C [28] 62.6% | viability, T/C [29] 58.6% | viability, T/C [31] 67.8% | viability, T/C [32] 72% | viability, T/C [33] 73.2% | viability, T/C [34] 61.9% | viability, T/C [35] 50.7%
4.1 µM: IC50 (second compound 1 µM)
3.12 µM: IC50 (second compound 10 µM)
5.32 µM: IC50 (second compound 0.316 µM)
3.61 µM: IC50 (second compound 3.16 µM)
active: viability, T/C [24] 8.31% | viability, T/C [30] 5.57% | viability, T/C [36] 3.16%
